Experiments:
CDK3/cyclinE(h) = CDK3/cyclinE(h) (Homo sapiens, UniProt Q00526); assay: Kinase panel, residual activity; assay type: biochemical; conditions: read-out: Percent residual activity
Protocol: (§1) In this panel of 124 kinases, 18 of the 19 kinases identified as having an active site cysteine were inhibited to some extent by hypothemycin at a concentration of 0.2 μM and/or 2 μM.

CSK(h) = CSK(h) (Homo sapiens, UniProt P41240); assay: Kinase panel, residual activity; assay type: biochemical; conditions: read-out: Percent residual activity
Protocol: as §1

EphB2(h) = EphB2(h) (Homo sapiens, UniProt P29323); assay: Kinase panel, residual activity; assay type: biochemical; conditions: read-out: Percent residual activity
Protocol: as §1

Flt1(h) = Flt1(h) (Homo sapiens, UniProt P17948); assay: Kinase panel, residual activity; assay type: biochemical; conditions: read-out: Percent residual activity
Protocol: as §1

Flt3(D835Y)(h) = Flt3(D835Y)(h) (Homo sapiens, UniProt P36888, D835Y); assay: Kinase panel, residual activity; assay type: biochemical; conditions: read-out: Percent residual activity
Protocol: as §1

Ron(h) = Ron(h) (Homo sapiens, UniProt Q04912); assay: Kinase panel, residual activity; assay type: biochemical; conditions: read-out: Percent residual activity
Protocol: as §1

TrkB(h) = TrkB(h) (Homo sapiens, UniProt Q16620); assay: Kinase panel, residual activity; assay type: biochemical; conditions: read-out: Percent residual activity
Protocol: as §1

Yes(h) = Yes(h) (Homo sapiens, UniProt P07947); assay: Kinase panel, residual activity; assay type: biochemical; conditions: read-out: Percent residual activity
Protocol: as §1

[1] = system: ERK1/2 activation in human T cells; conditions: tested at 0.3 to 3 μM; cited from earlier work
ERK2 = ERK2 (UniProt P28482); assay type: biochemical; set-up: "the target Cys 172 residue; conditions: Table 7
Protocol: In either case, the time dependent inactivation can be dampened by the presence of a competing substrate, in this case ATP.
For covalent inhibitors, plots of log (activity) versus time provide apparent first-order rate constants (kobsd) of enzyme activity loss. If these assays are performed at varying concentrations of inhibitor, a series of first-order plots is obtained and kobsd obtained at each inhibitor concentration. […] Such molecules may be competitive inhibitors but should not show time-dependent inactivation.
Inhibition progress curve analysis was performed using continuous, colorimetric, or fluorimetric assays. All experiments were done at 1 mM ATP, with the exception of KDR (at 5 mM ATP).
MEK1 assays were performed using pre-incubation experiments with radioactive [^32P]ATP and filter binding of product. All other kinases were analyzed using progress curve analysis from a continuous spectrophotometric assay.

Flt1(h), sequence (P17948 27-1338): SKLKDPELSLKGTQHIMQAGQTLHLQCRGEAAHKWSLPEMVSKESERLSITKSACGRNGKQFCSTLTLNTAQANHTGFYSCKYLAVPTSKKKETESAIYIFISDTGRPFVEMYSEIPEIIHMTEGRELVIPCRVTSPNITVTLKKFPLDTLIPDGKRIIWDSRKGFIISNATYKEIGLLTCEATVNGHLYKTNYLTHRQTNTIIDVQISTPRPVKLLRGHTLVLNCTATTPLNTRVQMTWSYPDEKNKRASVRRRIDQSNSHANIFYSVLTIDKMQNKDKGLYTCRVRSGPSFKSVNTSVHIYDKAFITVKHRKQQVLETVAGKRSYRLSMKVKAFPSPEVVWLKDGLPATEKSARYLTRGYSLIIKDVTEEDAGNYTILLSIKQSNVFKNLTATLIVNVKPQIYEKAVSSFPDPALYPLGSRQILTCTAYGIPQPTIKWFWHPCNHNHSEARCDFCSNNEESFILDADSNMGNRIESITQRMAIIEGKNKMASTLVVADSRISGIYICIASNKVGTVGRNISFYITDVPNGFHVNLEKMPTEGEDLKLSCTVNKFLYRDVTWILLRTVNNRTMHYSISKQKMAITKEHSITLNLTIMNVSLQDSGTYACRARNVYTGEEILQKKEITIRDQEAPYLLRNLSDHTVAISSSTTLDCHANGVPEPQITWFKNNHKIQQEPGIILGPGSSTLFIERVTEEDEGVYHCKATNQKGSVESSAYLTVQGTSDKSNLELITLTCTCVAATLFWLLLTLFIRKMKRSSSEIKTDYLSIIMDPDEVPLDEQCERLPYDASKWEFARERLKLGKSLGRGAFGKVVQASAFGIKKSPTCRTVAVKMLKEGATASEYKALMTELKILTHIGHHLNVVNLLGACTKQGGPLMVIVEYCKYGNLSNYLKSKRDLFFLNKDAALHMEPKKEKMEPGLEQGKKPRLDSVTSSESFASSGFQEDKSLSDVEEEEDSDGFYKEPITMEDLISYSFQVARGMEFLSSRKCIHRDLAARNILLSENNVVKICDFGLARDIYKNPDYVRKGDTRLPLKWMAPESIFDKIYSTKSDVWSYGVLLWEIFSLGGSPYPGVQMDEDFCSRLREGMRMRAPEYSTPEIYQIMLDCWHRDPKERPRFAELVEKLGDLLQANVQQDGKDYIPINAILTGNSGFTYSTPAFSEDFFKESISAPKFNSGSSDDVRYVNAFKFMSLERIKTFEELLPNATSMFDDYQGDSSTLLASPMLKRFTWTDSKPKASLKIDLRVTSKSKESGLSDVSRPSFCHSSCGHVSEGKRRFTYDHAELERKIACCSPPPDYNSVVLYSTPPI
TrkB(h), sequence (Q16620 32-822): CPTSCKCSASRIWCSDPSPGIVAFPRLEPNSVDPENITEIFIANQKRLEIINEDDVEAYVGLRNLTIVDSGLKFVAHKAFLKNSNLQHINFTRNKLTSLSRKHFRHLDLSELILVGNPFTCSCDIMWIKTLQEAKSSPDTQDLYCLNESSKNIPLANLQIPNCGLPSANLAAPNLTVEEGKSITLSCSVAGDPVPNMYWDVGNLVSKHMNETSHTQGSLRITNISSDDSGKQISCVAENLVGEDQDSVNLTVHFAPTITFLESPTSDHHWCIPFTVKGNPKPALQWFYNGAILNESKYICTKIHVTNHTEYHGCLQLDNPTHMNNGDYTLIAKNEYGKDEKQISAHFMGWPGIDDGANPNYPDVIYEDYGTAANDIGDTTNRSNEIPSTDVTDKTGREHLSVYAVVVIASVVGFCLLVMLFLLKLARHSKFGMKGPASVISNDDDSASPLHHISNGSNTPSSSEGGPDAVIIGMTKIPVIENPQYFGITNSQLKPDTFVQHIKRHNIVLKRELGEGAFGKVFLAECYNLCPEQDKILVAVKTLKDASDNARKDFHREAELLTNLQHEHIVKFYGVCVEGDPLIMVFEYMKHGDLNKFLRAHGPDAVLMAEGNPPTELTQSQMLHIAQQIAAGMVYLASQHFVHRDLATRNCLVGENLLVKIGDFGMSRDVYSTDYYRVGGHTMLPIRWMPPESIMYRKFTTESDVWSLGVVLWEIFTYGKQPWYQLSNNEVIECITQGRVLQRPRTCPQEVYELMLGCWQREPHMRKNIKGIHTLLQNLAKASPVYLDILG
EphB2(h), sequence (P29323 19-1055): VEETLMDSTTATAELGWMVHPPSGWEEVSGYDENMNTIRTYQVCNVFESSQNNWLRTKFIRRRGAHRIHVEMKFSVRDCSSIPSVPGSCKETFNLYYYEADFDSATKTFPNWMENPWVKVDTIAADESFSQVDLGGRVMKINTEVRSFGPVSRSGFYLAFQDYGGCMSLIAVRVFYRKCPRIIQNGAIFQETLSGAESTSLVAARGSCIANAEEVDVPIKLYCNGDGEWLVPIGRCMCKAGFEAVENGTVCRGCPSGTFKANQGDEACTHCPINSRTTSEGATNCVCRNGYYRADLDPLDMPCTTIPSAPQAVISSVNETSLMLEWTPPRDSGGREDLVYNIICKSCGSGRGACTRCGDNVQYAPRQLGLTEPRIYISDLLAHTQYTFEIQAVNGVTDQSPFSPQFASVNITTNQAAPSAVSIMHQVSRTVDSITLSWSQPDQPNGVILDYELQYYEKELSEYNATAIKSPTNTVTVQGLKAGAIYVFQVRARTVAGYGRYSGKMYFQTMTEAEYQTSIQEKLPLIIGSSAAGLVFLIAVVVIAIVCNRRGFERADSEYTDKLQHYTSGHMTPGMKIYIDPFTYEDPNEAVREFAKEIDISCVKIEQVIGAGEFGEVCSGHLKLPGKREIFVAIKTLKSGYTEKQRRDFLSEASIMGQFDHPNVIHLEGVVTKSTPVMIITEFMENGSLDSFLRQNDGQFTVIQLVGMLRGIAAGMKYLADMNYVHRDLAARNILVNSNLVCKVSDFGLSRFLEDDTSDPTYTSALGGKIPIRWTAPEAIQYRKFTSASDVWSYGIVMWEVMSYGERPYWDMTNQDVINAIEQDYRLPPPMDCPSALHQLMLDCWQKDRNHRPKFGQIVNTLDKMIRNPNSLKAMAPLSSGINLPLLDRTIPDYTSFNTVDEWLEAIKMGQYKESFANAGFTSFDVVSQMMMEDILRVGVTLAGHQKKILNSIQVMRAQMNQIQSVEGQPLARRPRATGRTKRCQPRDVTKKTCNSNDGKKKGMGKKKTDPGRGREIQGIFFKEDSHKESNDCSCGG
Ron(h), sequence (Q04912 25-1400): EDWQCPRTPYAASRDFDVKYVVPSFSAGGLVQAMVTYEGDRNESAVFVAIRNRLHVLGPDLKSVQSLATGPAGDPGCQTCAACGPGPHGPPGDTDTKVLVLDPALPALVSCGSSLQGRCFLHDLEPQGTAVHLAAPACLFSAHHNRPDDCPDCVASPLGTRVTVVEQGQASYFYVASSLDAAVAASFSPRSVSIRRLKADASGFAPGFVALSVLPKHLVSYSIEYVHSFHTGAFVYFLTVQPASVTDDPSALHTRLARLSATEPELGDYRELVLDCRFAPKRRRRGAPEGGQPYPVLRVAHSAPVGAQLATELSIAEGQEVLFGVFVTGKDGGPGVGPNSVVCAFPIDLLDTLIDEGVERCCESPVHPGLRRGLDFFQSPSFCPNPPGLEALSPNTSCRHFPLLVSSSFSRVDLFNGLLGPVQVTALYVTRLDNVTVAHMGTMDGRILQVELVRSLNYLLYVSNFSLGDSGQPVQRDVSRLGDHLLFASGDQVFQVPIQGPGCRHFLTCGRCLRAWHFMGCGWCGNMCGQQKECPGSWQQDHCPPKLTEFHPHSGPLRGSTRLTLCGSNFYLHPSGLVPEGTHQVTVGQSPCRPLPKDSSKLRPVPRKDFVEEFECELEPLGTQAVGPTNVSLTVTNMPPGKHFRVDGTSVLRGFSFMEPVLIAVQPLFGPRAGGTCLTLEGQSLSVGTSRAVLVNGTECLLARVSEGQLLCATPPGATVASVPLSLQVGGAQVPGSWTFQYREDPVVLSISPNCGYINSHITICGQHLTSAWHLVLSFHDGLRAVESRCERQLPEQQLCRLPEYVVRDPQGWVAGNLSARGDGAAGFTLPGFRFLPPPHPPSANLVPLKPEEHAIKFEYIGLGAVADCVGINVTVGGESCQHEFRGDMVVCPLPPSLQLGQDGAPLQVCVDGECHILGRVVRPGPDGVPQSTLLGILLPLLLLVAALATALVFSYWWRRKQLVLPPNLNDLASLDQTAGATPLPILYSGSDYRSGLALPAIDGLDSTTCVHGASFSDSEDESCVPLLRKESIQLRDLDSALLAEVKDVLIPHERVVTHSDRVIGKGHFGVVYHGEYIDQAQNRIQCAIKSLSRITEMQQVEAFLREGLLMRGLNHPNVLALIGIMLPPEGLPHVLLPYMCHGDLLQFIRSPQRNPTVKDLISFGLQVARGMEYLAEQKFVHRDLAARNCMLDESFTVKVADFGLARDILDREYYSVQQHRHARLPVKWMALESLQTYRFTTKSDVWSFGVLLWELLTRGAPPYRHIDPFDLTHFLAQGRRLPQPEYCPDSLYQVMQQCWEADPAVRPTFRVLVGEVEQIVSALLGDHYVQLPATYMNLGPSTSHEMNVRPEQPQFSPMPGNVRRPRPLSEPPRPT
Yes(h), sequence (P07947 whole entry): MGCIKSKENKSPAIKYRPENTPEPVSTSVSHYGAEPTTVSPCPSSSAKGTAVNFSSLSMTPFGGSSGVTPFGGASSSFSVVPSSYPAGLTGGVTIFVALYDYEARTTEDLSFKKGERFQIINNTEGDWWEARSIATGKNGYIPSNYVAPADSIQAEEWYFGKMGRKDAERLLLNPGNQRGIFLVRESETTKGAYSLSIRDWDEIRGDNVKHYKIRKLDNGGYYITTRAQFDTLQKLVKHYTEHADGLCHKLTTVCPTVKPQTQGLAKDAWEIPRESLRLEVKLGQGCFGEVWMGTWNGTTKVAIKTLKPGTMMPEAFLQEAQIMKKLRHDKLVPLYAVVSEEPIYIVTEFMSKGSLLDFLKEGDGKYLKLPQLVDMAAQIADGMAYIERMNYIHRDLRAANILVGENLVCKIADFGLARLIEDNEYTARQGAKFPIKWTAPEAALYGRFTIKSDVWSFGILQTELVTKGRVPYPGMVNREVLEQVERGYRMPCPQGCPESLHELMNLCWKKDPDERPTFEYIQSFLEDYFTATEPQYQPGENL

## COc1cc(O)c2c(c1)[C@H]1O[C@@H]1C[C@H](O)[C@H](O)C(=O)/C=C\C[C@H](C)OC2=O [Hypothemycin, hypothemycin]
CDK3/cyclinE(h)
  remaining activity at 0.2 µM: 95%
CSK(h)
  remaining activity at 0.2 µM: 104%
EphB2(h)
  remaining activity at 0.2 µM: 118%
Flt1(h); 0.2 μM
  remaining activity at 0.2 µM: 2%
Flt1(h); 2.0 μM
  remaining activity at 2 µM: 7%
Flt3(D835Y)(h); 0.2 μM
  remaining activity at 0.2 µM: 4%
Flt3(D835Y)(h); 2.0 μM
  remaining activity at 2 µM: 2%
Ron(h)
  remaining activity at 0.2 µM: 91%
TrkB(h); 0.2 μM
  remaining activity at 0.2 µM: 58%
TrkB(h); 2.0 μM
  remaining activity at 2 µM: 18%
Yes(h)
  remaining activity at 0.2 µM: 99%
[1]
  inhibition of the activation of ERK1/2: inhibit
ERK2
  ERK2 Inhibition kinact.: 5 ± 2 × 10^−3 sec^−1
ERK2; read-out: ERK2 Inhibition Ki
  Ki: 1900 ± 1100 nM
